Experimental data taken from patent publication US20060154335A1, “Novel members of the steroid/thyroid superfamily and uses therefor” (The Salk Institute for Biological Studies, priority 1994, published 2006).
“Also recorded” adds a separate entry of the source.

How the values were obtained:
PPARγ = biological target: T1, PPARγ (Mus musculus, UniProt P37238, N383S); assay: Cotransfection assay in CV-1 cells, PPRE3-TK-LUC reporter, CMX-PPARγ; format: cell-based; details: 5 μM Wy 14,643, 30 μM linoleic acid, 30 μM LY-171883
T1 construct: The first clone encodes a 475-amino acid protein; expressed in transfected cells; host or cells: CV-1 cells
T1 sequence (P37238 31-505 N383S): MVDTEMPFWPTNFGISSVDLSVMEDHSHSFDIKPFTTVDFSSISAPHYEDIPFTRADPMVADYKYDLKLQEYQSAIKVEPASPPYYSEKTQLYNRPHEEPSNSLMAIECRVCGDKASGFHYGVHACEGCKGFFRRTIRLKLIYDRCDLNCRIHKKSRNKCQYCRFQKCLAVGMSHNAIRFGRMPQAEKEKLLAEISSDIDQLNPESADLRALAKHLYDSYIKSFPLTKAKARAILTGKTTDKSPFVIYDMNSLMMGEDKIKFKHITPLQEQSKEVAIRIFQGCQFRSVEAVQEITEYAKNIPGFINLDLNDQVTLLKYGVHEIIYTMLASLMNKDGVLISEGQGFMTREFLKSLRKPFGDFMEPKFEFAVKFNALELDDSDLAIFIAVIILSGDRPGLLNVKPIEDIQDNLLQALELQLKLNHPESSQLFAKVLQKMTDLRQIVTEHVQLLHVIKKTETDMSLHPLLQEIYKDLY
Text: (§1) Luciferase activities are presented as the fold activation achieved in compound-treated versus mock-treated cells. Similar results were obtained in triplicate in three independent experiments.
(§2) The mammalian expression vectors pCMX-PPARα, pCMX-PPARγ and pCMX-PPARδ were constructed by inserting the cDNA inserts of PPARα, PPARγ, and PPARδ into pCMX as previously described by Umesono et al., in Cell 65:1255-1266 (1991)). Construction of the reporter PPRE3-TK-LUC has also been previously described by Kliewer et al., (1992) supra. Cotransfection assays in CV-1 cells were done in 48 well plates using N-[1-(2,3-dioleoyloxy)-propyl [N,N,N-trimethyl ammonium methyl sulfate (DOTAP) according to the manufacturer's instructions (Boehringer Mannheim). Transfections contained 10 ng of receptor expression plasmid vector, 20 ng of the reporter PPRE3-TK-LUC, 60 ng of pCMX-βGAL (β-galactosidase) as an internal control, and 210 ng of carrier plasmid pGEM. Cells were incubated in the presence of DOTAP for 8 hours, washed, and incubated in the presence of peroxisome proliferators or fatty acids for 36 hours. Cell extracts were prepared and assayed for luciferase and β-galactosidase activity as previously described (Umesono, supra). All experimental points were done in triplicate.

PPARα [1] = biological target: T2, PPARα (Mus musculus, UniProt P23204); assay: Cotransfection assay in CV-1 cells, PPRE3-TK-LUC reporter, CMX-PPARα; format: cell-based; details: 5 μM Wy 14,643, 30 μM linoleic acid, 30 μM LY-171883
T2 construct: constructed by inserting the cDNA inserts of PPARα, PPARγ, and PPARδ into pCMX; expressed in transfected cells; host or cells: CV-1 cells
T2 sequence (P23204 1-468): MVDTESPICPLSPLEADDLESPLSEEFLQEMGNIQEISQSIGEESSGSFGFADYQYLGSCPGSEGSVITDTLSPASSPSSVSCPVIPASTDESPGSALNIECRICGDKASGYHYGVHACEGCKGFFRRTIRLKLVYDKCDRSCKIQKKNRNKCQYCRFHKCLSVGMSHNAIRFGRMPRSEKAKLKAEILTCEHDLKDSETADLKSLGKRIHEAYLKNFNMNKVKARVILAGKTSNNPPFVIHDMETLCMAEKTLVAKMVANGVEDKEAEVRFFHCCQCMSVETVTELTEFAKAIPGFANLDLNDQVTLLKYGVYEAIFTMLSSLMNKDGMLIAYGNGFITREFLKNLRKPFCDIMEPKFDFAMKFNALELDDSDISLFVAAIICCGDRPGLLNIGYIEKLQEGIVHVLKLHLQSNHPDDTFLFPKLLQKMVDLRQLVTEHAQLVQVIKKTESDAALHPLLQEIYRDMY
Text: as §1, §2

PPARα [2] = assay: cell_activity; details: 5 uM Wy 14,643, CV-1 cells, luciferase reporter
PPARδ = biological target: T3, PPARδ (Mus musculus, UniProt P35396, A150G/E149D); assay: Cotransfection assay in CV-1 cells, PPRE3-TK-LUC reporter, CMX-PPARδ; format: cell-based; details: 5 μM Wy 14,643, 30 μM linoleic acid, 30 μM LY-171883
T3 construct: The second clone encodes a 440-amino acid protein; expressed in transfected cells; host or cells: CV-1 cells
T3 sequence (P35396 1-440 E149D/A150G): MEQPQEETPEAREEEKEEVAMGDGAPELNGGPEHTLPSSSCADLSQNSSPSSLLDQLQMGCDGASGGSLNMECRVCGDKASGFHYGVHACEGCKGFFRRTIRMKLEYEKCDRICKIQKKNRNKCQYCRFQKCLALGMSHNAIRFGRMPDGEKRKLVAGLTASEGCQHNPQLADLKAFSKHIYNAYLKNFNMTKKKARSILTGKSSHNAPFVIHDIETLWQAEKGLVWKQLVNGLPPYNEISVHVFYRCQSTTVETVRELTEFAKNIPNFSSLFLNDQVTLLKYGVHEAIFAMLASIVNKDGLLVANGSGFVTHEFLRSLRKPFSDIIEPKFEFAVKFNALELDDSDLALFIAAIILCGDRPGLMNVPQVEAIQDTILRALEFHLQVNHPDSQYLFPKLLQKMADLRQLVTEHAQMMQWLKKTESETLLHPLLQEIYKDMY
Text: as §2

Cc1cccc(Nc2cc(Cl)nc(SCC(=O)O)n2)c1C [Wy 14,643]
activation of PPARγ (reporter expression) (PPARγ): no activation; also recorded: fail to respond; also recorded: fails to activate | activation of PPARα (reporter expression) (PPARα [1]): most efficiently activated

PPRE3-TK-LUC (three copies of AOX-PPRE)
activity (fold activation) (PPARα [2]): > 100

CCCCC/C=C\C/C=C\CCCCCCCC(=O)O [linoleic acid]
activation of PPARγ (reporter expression) (PPARγ): no activation | activation of PPARδ (reporter expression) (PPARδ): activated; also recorded: most efficiently activated | activation of PPARα (reporter expression) (PPARα [1]): strong activators

CCCc1c(OCCCCc2nnn[nH]2)ccc(C(C)=O)c1O [LY-171883]
activation of PPARγ (reporter expression) (PPARγ): significant activation; also recorded: most efficiently activated | activation of PPARδ (reporter expression) (PPARδ): not activated | activation of PPARα (reporter expression) (PPARα [1]): strong activators
